Patent US12590062B2, “PD-1/PD-L1 inhibitors” (Gilead Sciences, Inc., priority 2017, dated 2026)

Assays:
PD-L1 = target: T1, PD-L1 (Homo sapiens, UniProt Q9NZQ7); assay: PD-L1/PD-L1 dimerization biochemical protein-protein interaction assay (ALPHA); assay type: binding; settings: compound-induced PD-L1 dimerization, head prints '1 nM' (0.5 nM His-tagged PD-L1 and 0.5 nM FLAG-tagged PD-L1), read-out: AC50 PDL1 Dimer Alpha 1 nM
T1 construct: determine if they can specifically dimerize the extracellular domains of PD-L1
T1 sequence (Q9NZQ7 19-238 limits assumed): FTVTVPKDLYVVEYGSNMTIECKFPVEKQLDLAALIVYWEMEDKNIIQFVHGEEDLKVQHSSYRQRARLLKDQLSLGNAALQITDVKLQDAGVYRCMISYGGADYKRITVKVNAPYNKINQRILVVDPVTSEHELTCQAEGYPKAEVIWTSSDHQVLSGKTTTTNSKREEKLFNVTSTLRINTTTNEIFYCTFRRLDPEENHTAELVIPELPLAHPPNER
T1 sequence (Q9NZQ7 19-238 limits assumed): as above
Procedure, shortened: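 After 2 h at 25 °C with compound, His- and FLAG-tagged PD-L1 ECDs (each 0.5 nM final; 25 mM Hepes pH 7.4, 150 mM NaCl) were detected by sequential anti-His acceptor and anti-FLAG donor bead incubations. Dose-response curves fitted to four-parameter equation for AC50.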

PD-1/PD-L1 interaction = target: T2, PD-1/PD-L1 interaction (Homo sapiens, UniProt Q9NZQ7); assay: PD-1/PD-L1 NFAT reporter co-culture assay; assay type: cell-based; settings: Jurkat PD-1 NFAT-luciferase cells co-cultured with aAPC-PD-L1 CHO cells, 6 hrs at 37° C.; read-out: EC50 NFAT Luciferase
T2 construct: expressed in transfected cells; host or cells: CHO cells (aAPC-PD-L1) co-cultured with Jurkat cells overexpressing PD-1 and an NFAT-luciferase reporter
T2 sequence (Q9NZQ7 19-290): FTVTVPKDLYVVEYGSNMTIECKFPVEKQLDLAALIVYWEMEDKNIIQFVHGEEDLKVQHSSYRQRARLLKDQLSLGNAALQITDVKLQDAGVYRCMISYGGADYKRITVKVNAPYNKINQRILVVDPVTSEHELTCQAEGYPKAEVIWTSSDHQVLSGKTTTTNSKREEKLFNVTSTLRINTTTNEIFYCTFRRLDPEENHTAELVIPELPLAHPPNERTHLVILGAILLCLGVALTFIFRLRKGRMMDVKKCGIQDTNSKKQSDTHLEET
Procedure, shortened: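 Jurkat cells overexpressing PD-1 with NFAT-driven luciferase were mixed with compound in RPMI 1640/2% FBS and seeded onto overnight-plated CHO aAPC-PD-L1 cells expressing surface anti-CD3 and PD-L1. Co-culture ran 6 h at 37 °C; luminescence read with ONE-Glo; EC50 from four-parameter fit.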

PD-1/PD-L1 = PD-1/PD-L1 (Homo sapiens, UniProt Q9NZQ7); assay: PD-1/PD-L1 biochemical protein-protein interaction assay (ALPHA); assay type: binding; settings: 0.3 nM His tagged PD-L1, 2.5 nM biotinylated Fc-PD-1, 60 minutes at 25° C., read-out: IC50 PD-L1-PD-1 Alpha IC50-mono PD-L1-fcP-D1
Sequence of PD-1/PD-L1 (Q9NZQ7 19-238 limits assumed): as the sequence (Q9NZQ7 19-238 limits assumed) above
Procedure, shortened: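 Compound blockade of the PD-1/PD-L1 extracellular-domain interaction measured as reduced ALPHA signal after 60 min at 25 °C, pH 7.4 Hepes buffer with EDTA, Tween 20 and BSA. Final proteins: His-tagged PD-L1 0.3 nM, biotinylated Fc-PD-1 2.5 nM; four-parameter curve fit gives IC50.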

SMILES	AC50 (PD-L1) [nM]	EC50 (PD-1/PD-L1 interaction) [nM]	IC50 (PD-1/PD-L1) [nM]
CNCc1cccc(-c2cccc(-c3cccc(COc4cc(OCc5cncc(C#N)c5)c(CN[C@@](C)(CO)C(=O)O)cc4Cl)c3C)c2C)c1 [Example 358, (S)-2-((5-chloro-2-((5-cyanopyridin-3-yl)methoxy)-4-((2,2′-dimethyl-3″-((methylamino)methyl)-[1,1′:3′,1″-terphenyl]-3-yl)methoxy)benzyl)amino)-3-hydroxy-2-methylpropanoic acid]	100	2090	0.137
Cc1c(COc2cc(OCc3cncc(C#N)c3)c(CNC[C@@H](O)CC(=O)O)cc2Cl)cccc1-c1cccc(-c2ccc3c(CNC[C@@H](O)CC(=O)O)ccc(Cl)c3c2)c1C [Example 359, (S)-4-(((6-(3′-((4-((((S)-3-carboxy-2-hydroxypropyl)amino)methyl)-2-chloro-5-((5-cyanopyridin-3-yl)methoxy)phenoxy)methyl)-2,2′-dimethyl-[1,1′-biphenyl]-3-yl)-4-chloronaphthalen-1-yl)methyl)amino)-3-hydroxybutanoic acid]	540	216	2.11
Cc1c(COc2cc(OCc3cncc(C#N)c3)c(CN[C@@](C)(CO)C(=O)O)cc2Cl)cccc1-c1cccc(-c2ccc(CN[C@H]3CC[C@H](O)CC3)cc2)c1C [Example 361, (S)-2-((5-chloro-2-((5-cyanopyridin-3-yl)methoxy)-4-((4″-((((1r,4r)-4-hydroxycyclohexyl)amino)methyl)-2,2′-dimethyl-[1,1′:3′,1″-terphenyl]-3-yl)methoxy)benzyl)amino)-3-hydroxy-2-methylpropanoic acid]	138	314	0.13
CC(=O)NCCNCc1ccc(-c2cccc(-c3cccc(COc4cc(OCc5cncc(C#N)c5)c(CN[C@@](C)(CO)C(=O)O)cc4Cl)c3C)c2C)cc1 [Example 362, (S)-2-((4-((4″-(((2-acetamidoethyl)amino)methyl)-2,2′-dimethyl-[1,1′:3′,1″-terphenyl]-3-yl)methoxy)-5-chloro-2-((5-cyanopyridin-3-yl)methoxy)benzyl)amino)-3-hydroxy-2-methylpropanoic acid]	108	221	0.104
Cc1c(COc2cc(OCc3cncc(C#N)c3)c(CN[C@@](C)(CO)C(=O)O)cc2Cl)cccc1-c1cccc(-c2ccc(OCCc3cccnc3)c(CNCCO)c2)c1C [Example 364, (S)-2-((5-chloro-2-((5-cyanopyridin-3-yl)methoxy)-4-((3″-(((2-hydroxyethyl)amino)methyl)-2,2′-dimethyl-4″-(2-(pyridin-3-yl)ethoxy)-[1,1′:3′,1″-terphenyl]-3-yl)methoxy)benzyl)amino)-3-hydroxy-2-methylpropanoic acid]	98.3	353	0.304
Cc1c(COc2cc(OCc3cncc(C#N)c3)c(CN[C@@H]3CCC[C@@H]3O)cc2Cl)cccc1-c1cccc(-c2ccc3c(c2)CCC3N2CC[C@H](C(=O)O)C2)c1C (stereo partly drawn) [Example 369, (3S)-1-(5-(3′-((2-chloro-5-((5-cyanopyridin-3-yl)methoxy)-4-((((1R,2S)-2-hydroxycyclopentyl)amino)methyl)phenoxy)methyl)-2,2′-dimethyl-[1,1′-biphenyl]-3-yl)-2,3-dihydro-1H-inden-1-yl)pyrrolidine-3-carboxylic acid]	57.6	107	0.164
Cc1c(COc2cc(OCc3cncc(C#N)c3)c(CN[C@@](C)(CO)C(=O)O)cc2Cl)cccc1-c1cccc(-c2ccc(C3CCCN3CCO)cc2)c1C (stereo partly drawn) [Example 374, (2S)-2-((5-chloro-2-((5-cyanopyridin-3-yl)methoxy)-4-((4″-(1-(2-hydroxyethyl)pyrrolidin-2-yl)-2,2′-dimethyl-[1,1′:3′,1″-terphenyl]-3-yl)methoxy)benzyl)amino)-3-hydroxy-2-methylpropanoic acid]	165	788	0.136

Continued, values first:

AC50 (PD-L1) [nM]	EC50 (PD-1/PD-L1 interaction) [nM]	IC50 (PD-1/PD-L1) [nM]	SMILES
224	520	1.12	Cc1c(COc2cc(OCc3cncc(C#N)c3)c(CN[C@@](C)(CO)C(=O)O)cc2Cl)cccc1-c1cccc(-c2ccc(CNCCc3c[nH]cn3)cc2)c1C [Example 360, (S)-2-((4-((4″-(((2-(1H-imidazol-4-yl)ethyl)amino)methyl)-2,2′-dimethyl-[1,1′:3′,1″-terphenyl]-3-yl)methoxy)-5-chloro-2-((5-cyanopyridin-3-yl)methoxy)benzyl)amino)-3-hydroxy-2-methylpropanoic acid]
171	168	0.081	Cc1c(COc2cc(OCc3cncc(C#N)c3)c(CN[C@@](C)(CO)C(=O)O)cc2Cl)cccc1-c1cccc(-c2ccc(CNC3CNC(=O)C3)cc2)c1C (stereo partly drawn) [Example 363, (2S)-2-((5-chloro-2-((5-cyanopyridin-3-yl)methoxy)-4-((2,2′-dimethyl-4″-(((5-oxopyrrolidin-3-yl)amino)methyl)-[1,1′:3′,1″-terphenyl]-3-yl)methoxy)benzyl)amino)-3-hydroxy-2-methylpropanoic acid]
174	408	1.57	Cc1c(COc2cc(OCc3cncc(C#N)c3)c(CNCCO)cc2Cl)cccc1-c1cccc(-c2ccc(CNCCO)cc2)c1CF [Example 365, 5-((4-chloro-5-((2′-(fluoromethyl)-4″-(((2-hydroxyethyl)amino)methyl)-2-methyl-[1,1′:3′,1″-terphenyl]-3-yl)methoxy)-2-(((2-hydroxyethyl)amino)methyl)phenoxy)methyl)nicotinonitrile]
227	376	2.53	Cc1c(COc2cc(OCc3cncc(C#N)c3)c(CN[C@H]3CCCC[C@@H]3O)cc2Cl)cccc1-c1cccc(-c2cccc(OCCNCCO)c2)c1C [Example 367, 5-((4-chloro-2-((((1S,2S)-2-hydroxycyclohexyl)amino)methyl)-5-((3″-(2-((2-hydroxyethyl)amino)ethoxy)-2,2′-dimethyl-[1,1′:3′,1″-terphenyl]-3-yl)methoxy)phenoxy)methyl)nicotinonitrile]
274	118	1.88	Cc1c(COc2cc(OCc3cncc(C#N)c3)c(CN[C@@H]3CCC[C@@H]3O)cc2Cl)cccc1-c1cccc(-c2ccc(CN3CC(CC(=O)O)C3)cc2)c1C [Example 368, 2-(1-((3″-((2-chloro-5-((5-cyanopyridin-3-yl)methoxy)-4-((((1R,2S)-2-hydroxycyclopentyl)amino)methyl)phenoxy)methyl)-2′,2″-dimethyl-[1,1′:3′,1″-terphenyl]-4-yl)methyl)azetidin-3-yl)acetic acid]
81.4	577	0.139	Cc1c(COc2cc(OCc3cncc(C#N)c3)c(CN3CC[C@@H](O)C3)cc2Cl)cccc1-c1cccc(-c2ccc3c(c2)CCC3N2CC[C@@H](C(=O)O)C2)c1C (stereo partly drawn) [Example 370, (3R)-1-(5-(3′-((2-chloro-5-((5-cyanopyridin-3-yl)methoxy)-4-(((R)-3-hydroxypyrrolidin-1-yl)methyl)phenoxy)methyl)-2,2′-dimethyl-[1,1′-biphenyl]-3-yl)-2,3-dihydro-1H-inden-1-yl)pyrrolidine-3-carboxylic acid]
78	210	0.074	Cc1c(COc2cc(OCc3cncc(C#N)c3)c(CN[C@@](C)(CO)C(=O)O)cc2Cl)cccc1-c1cccc(-c2ccc3c(c2)CCC3N2CC(C)C2)c1C (stereo partly drawn) [Example 371, (2S)-2-((5-chloro-2-((5-cyanopyridin-3-yl)methoxy)-4-((2,2′-dimethyl-3′-(1-(3-methylazetidin-1-yl)-2,3-dihydro-1H-inden-5-yl)-[1,1′-biphenyl]-3-yl)methoxy)benzyl)amino)-3-hydroxy-2-methylpropanoic acid]
425	860	1.13	Cc1c(COc2cc(OCc3cncc(C#N)c3)c(CNC[C@@H](O)CC(=O)O)cc2Cl)cccc1-c1cccc(-c2cc3c(cc2F)C(N(C)C)CC3)c1C (stereo partly drawn) [Example 372, (3S)-4-((5-chloro-2-((5-cyanopyridin-3-yl)methoxy)-4-((3′-(1-(dimethylamino)-6-fluoro-2,3-dihydro-1H-inden-5-yl)-2,2′-dimethyl-[1,1′-biphenyl]-3-yl)methoxy)benzyl)amino)-3-hydroxybutanoic acid]
168	339	2.59	Cc1c(COc2cc(OCc3cncc(C#N)c3)c(CNCCO)cc2Cl)cccc1-c1cccc(-c2ccc3c(c2)CCC3N2CC[C@H](O)C2)c1C (stereo partly drawn) [Example 373, 5-((4-chloro-2-(((2-hydroxyethyl)amino)methyl)-5-((3′-(1-((S)-3-hydroxypyrrolidin-1-yl)-2,3-dihydro-1H-inden-5-yl)-2,2′-dimethyl-[1,1′-biphenyl]-3-yl)methoxy)phenoxy)methyl)nicotinonitrile]
